The target in experiment [1] is T1, human JAK1 (a.a. 837-1142) catalytic domain (Homo sapiens, UniProt P23458).
T1 construct: human JAK1 (a.a. 837-1142); His tag (N); made in house; host or cells: insect cells (baculovirus)
Nature of the experiment: In vitro JAK kinase assay (HTRF, phosphorylation of biotinylated peptide), JAK1. Type of experiment: biochemical. The settings on record: ATP 1 mM. The method, then:
Compounds herein were tested for inhibitory activity of JAK targets according to the following in vitro assay described in Park et al., Analytical Biochemistry 1999, 269, 94-104. The catalytic domains of human JAK1 (a.a. 837-1142) and JAK2 (a.a. 828-1132) with an N-terminal His tag were expressed using baculovirus in insect cells and purified. The catalytic activity of JAK1 and JAK2 was assayed by measuring the phosphorylation of a biotinylated peptide. The phosphorylated peptide was detected by homogenous time resolved fluorescence (HTRF). […] For the 1 mM IC50 measurements, ATP concentration in the reactions was 1 mM. Reactions were carried out at room temperature for 1 hour and then stopped with 20 μL 45 mM EDTA, 300 nM SA-APC, 6 nM Eu-Py20 in assay buffer (Perkin Elmer, Boston, Mass.). Binding to the Europium labeled antibody took place for 40 minutes and HTRF signal was measured on a Fusion plate reader (Perkin Elmer, Boston, Mass.). […] Data is indicated as ranges, wherein “+” is less than 5 nM; “++” is 5 nM to 25 nM; “+++” is greater than 25 nM to 100 nM; and “++++” is greater than 100 nM.
In general terms: In TR-FRET formats the signal depends on donor and acceptor labels being close together.

Experiment [2] addresses T2, JAK2 (a.a. 828-1132) catalytic domain (Homo sapiens, UniProt O60674).
T2 construct: JAK2 (a.a. 828-1132); His tag (N); made in house; host or cells: insect cells (baculovirus)
Nature of the experiment: In vitro JAK kinase assay (HTRF, phosphorylation of biotinylated peptide), JAK2. Type of experiment: biochemical. The settings on record: ATP 1 mM. As to the method:
Compounds herein were tested for inhibitory activity of JAK targets according to the following in vitro assay described in Park et al., Analytical Biochemistry 1999, 269, 94-104. The catalytic domains of human JAK1 (a.a. 837-1142) and JAK2 (a.a. 828-1132) with an N-terminal His tag were expressed using baculovirus in insect cells and purified. The catalytic activity of JAK1 and JAK2 was assayed by measuring the phosphorylation of a biotinylated peptide. The phosphorylated peptide was detected by homogenous time resolved fluorescence (HTRF). […] For the 1 mM IC50 measurements, ATP concentration in the reactions was 1 mM. Reactions were carried out at room temperature for 1 hour and then stopped with 20 μL 45 mM EDTA, 300 nM SA-APC, 6 nM Eu-Py20 in assay buffer (Perkin Elmer, Boston, Mass.). Binding to the Europium labeled antibody took place for 40 minutes and HTRF signal was measured on a Fusion plate reader (Perkin Elmer, Boston, Mass.). See Tables A and B for data related to compounds of the invention (at 1 mM). Data is indicated as ranges, wherein “+” is less than 5 nM; “++” is 5 nM to 25 nM; “+++” is greater than 25 nM to 100 nM; and “++++” is greater than 100 nM.

We go through 14 compounds from patent US9034884B2, “Heterocyclic-substituted pyrrolopyridines and pyrrolopyrimidines as JAK inhibitors” (Incyte Corporation, priority 2010, dated 2015).

Broadly, the IC50 is the concentration that gives 50% inhibition.

T1 sequence (P23458 849-1154): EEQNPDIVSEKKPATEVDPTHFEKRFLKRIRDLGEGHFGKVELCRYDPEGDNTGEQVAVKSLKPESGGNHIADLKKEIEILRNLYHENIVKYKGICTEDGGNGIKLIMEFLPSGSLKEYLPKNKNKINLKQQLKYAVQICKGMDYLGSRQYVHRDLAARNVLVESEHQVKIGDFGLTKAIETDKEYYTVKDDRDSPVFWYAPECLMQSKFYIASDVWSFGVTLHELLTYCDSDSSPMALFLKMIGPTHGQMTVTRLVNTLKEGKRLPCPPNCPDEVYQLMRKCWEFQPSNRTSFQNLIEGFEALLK
T2 sequence (O60674 828-1132): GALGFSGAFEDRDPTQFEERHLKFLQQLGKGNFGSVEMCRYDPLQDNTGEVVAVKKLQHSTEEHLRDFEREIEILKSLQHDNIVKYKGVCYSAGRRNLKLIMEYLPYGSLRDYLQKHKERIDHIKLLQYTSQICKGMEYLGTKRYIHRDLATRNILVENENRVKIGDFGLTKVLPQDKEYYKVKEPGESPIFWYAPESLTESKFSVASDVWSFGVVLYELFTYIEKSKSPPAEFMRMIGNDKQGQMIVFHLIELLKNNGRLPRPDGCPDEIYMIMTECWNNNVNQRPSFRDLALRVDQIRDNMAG

Turning to `N#CCC(CN1CCC(Oc2cc(F)cc(CN3CCOCC3)c2)CC1)n1cc(-c2ncnc3[nH]ccc23)cn1` (stereo not shown) [Example 26, 4-{4-[3-fluoro-5-(morpholin-4-ylmethyl)phenoxy]piperidin-1-yl}-3-[4-(7H-pyrrolo[2,3-d]pyrimidin-4-yl)-1H-pyrazol-1-yl]butanenitrile], the IC50 was 5 to 25 nM in experiment [1] (Table A) and over 100 nM in experiment [2] (Table A).
As for `N#CCC(CN1CCC(Oc2cc(F)cc(C(=O)N3CCC(F)(F)C3)c2)CC1)n1cc(-c2ncnc3[nH]ccc23)cn1` (stereo not shown) [Example 19, 4-(4-{3-[(3,3-Difluoropyrrolidin-1-yl)carbonyl]-5-fluorophenoxy}piperidin-1-yl)-3-[4-(7H-pyrrolo[2,3-d]pyrimidin-4-yl)-1H-pyrazol-1-yl]butanenitrile], the IC50 in experiment [1] (Table A) is under 5 nM; in experiment [2] (Table A) it was 5 to 25 nM.
On the same counts, the results for `N#CCC(CN1CCC(Oc2cc(F)cc(C(=O)N3CCCCC3)c2)CC1)n1cc(-c2ncnc3[nH]ccc23)cn1` (stereo not shown) [Example 17, 4-{4-[3-Fluoro-5-(piperidin-1-ylcarbonyl)phenoxy]piperidin-1-yl}-3-[4-(7H-pyrrolo[2,3-d]pyrimidin-4-yl)-1H-pyrazol-1-yl]butanenitrile] are under 5 nM and 5 to 25 nM.
Consider `N#CCC(CN1CCC(Oc2cc(F)cc(Cl)c2)CC1)n1cc(-c2ncnc3[nH]ccc23)cn1` (stereo not shown) [Example 2], for which the IC50 in experiment [1] (Table A) was under 5 nM; in experiment [2] (Table A), 25 to 100 nM.
On to `N#CCC(CN1CCC(Oc2cc(F)cc(C#N)c2)CC1)n1cc(-c2ncnc3[nH]ccc23)cn1` (stereo not shown) [Example 6, 3-[(1-{3-Cyano-2-[4-(7H-pyrrolo[2,3-d]pyrimidin-4-yl)-1H-pyrazol-1-yl]propyl}piperidin-4-yl)oxy]-5-fluorobenzonitrile tris(trifluoroacetate)], for which the IC50 was under 5 nM in experiment [1] (Table A) and 25 to 100 nM in experiment [2] (Table A).
Take `N#CCC(CN1CCC(Oc2cc(F)cc(C(=O)NCCN3CCOCC3)c2)CC1)n1cc(-c2ncnc3[nH]ccc23)cn1` (stereo not shown) [Example 16, 3-[(1-{3-Cyano-2-[4-(7H-pyrrolo[2,3-d]pyrimidin-4-yl)-1H-pyrazol-1-yl]propyl}piperidin-4-yl)oxy]-5-fluoro-N-(2-morpholin-4-ylethyl)benzamide tris(trifluoroacetate)]: the IC50 in experiment [1] (Table A) is under 5 nM; in experiment [2] (Table A), 5 to 25 nM.
In the case of `CN(C)C(=O)c1cc(F)cc(OC2CCN(CC(CC#N)n3cc(-c4ncnc5[nH]ccc45)cn3)CC2)c1` (stereo not shown) [Example 8, 3-[(1-{3-Cyano-2-[4-(7H-pyrrolo[2,3-d]pyrimidin-4-yl)-1H-pyrazol-1-yl]propyl}piperidin-4-yl)oxy]-5-fluoro-N,N-dimethylbenzamide tris(trifluoroacetate)], the IC50 is under 5 nM in experiment [1] (Table A) and 5 to 25 nM in experiment [2] (Table A).
On the same counts, the results for `CC(C)NC(=O)c1cc(F)cc(OC2CCN(CC(CC#N)n3cc(-c4ncnc5[nH]ccc45)cn3)CC2)c1` (stereo not shown) [Example 11, 3-[(1-{3-Cyano-2-[4-(7H-pyrrolo[2,3-d]pyrimidin-4-yl)-1H-pyrazol-1-yl]propyl}piperidin-4-yl)oxy]-5-fluoro-N-isopropylbenzamide tris(trifluoroacetate)] are under 5 nM and 5 to 25 nM.
Take `N#CCC(CN1CCC(Oc2cc(F)cc(CN3CCCCC3)c2)CC1)n1cc(-c2ncnc3[nH]ccc23)cn1` (stereo not shown) [Example 25, 4-{4-[3-fluoro-5-(piperidin-1-ylmethyl)phenoxy]piperidin-1-yl}-3-[4-(7H-pyrrolo[2,3-d]pyrimidin-4-yl)-1H-pyrazol-1-yl]butanenitrile]: the IC50 in experiment [1] (Table A) is under 5 nM; in experiment [2] (Table A), 5 to 25 nM.
As to `C[C@H]1CCCN1Cc1cc(F)cc(OC2CCN(CC(CC#N)n3cc(-c4ncnc5[nH]ccc45)cn3)CC2)c1` (stereo partly drawn) [Example 29, 4-[4-(3-fluoro-5-{[(2S)-2-methylpyrrolidin-1-yl]methyl}phenoxy)piperidin-1-yl]-3-[4-(7H-pyrrolo[2,3-d]pyrimidin-4-yl)-1H-pyrazol-1-yl]butanenitrile], the IC50 in experiment [1] (Table A) is under 5 nM; in experiment [2] (Table A), 25 to 100 nM.
`N#CCC(CN1CCC(Oc2cc(F)cc(C#N)c2)C(F)C1)n1cc(-c2ncnc3[nH]ccc23)cn1` (single isomer, unassigned) [Example 31 diastereomer 1, 3-[(1-{3-Cyano-2-[4-(7H-pyrrolo[2,3-d]pyrimidin-4-yl)-1H-pyrazol-1-yl]propyl}-3-fluoropiperidin-4-yl)oxy]-5-fluorobenzonitrile (two diastereomers)]: the IC50 lay within 5 to 25 nM in experiment [1] (Table B) and 25 to 100 nM in experiment [2] (Table B).
As to `N#CCCNC(=O)c1cc(F)cc(OC2CCN(CC(CC#N)n3cc(-c4ncnc5[nH]ccc45)cn3)CC2)c1` (stereo not shown) [Example 12, N-(2-Cyanoethyl)-3-[(1-{3-cyano-2-[4-(7H-pyrrolo[2,3-d]pyrimidin-4-yl)-1H-pyrazol-1-yl]propyl}piperidin-4-yl)oxy]-5-fluorobenzamide tris(trifluoroacetate)], the figures for the IC50 in experiment [1] (Table A) and in experiment [2] (Table A) were under 5 nM and 5 to 25 nM, respectively.
Turning to `N#CCC(CN1CCC(Oc2cc(F)cc(C(=O)N3CCOCC3)c2)CC1)n1cc(-c2ncnc3[nH]ccc23)cn1` (stereo not shown) [Example 18, 4-{4-[3-Fluoro-5-(morpholin-4-ylcarbonyl)phenoxy]piperidin-1-yl}-3-[4-(7H-pyrrolo[2,3-d]pyrimidin-4-yl)-1H-pyrazol-1-yl]butanenitrile], the IC50 was under 5 nM in experiment [1] (Table A) and 5 to 25 nM in experiment [2] (Table A).
Take `N#CCC(CN1CCC(Oc2cc(F)cc(C(F)(F)F)c2)CC1)n1cc(-c2ncnc3[nH]ccc23)cn1` (stereo not shown) [Example 3, 4-{4-[3-Fluoro-5-(trifluoromethyl)phenoxy]piperidin-1-yl}-3-[4-(7H-pyrrolo[2,3-d]pyrimidin-4-yl)-1H-pyrazol-1-yl]butanenitrile tris(trifluoroacetate)]: the values for the IC50 in experiment [1] (Table A) and in experiment [2] (Table A) were 5 to 25 nM and over 100 nM, respectively.
